# Experimental data from US20240376517A1 (THE UNIVERSITY COURT OF THE UNIVERSITY OF EDINBURCH, priority 2021, published 2024).
# *1 amine or outer side, *2 acyl side, *3 side chain or, on linkers, in order; H or OH if unused. Where a SMILES comes first, the peptide text is derived from it. Where no end group is shown, it is not given here. [ ]: non-standard residue; d: D form. The star is where a group is joined. ξ: configuration not given here. BODIPY(FL) = CC1=CC(C)=[N+]2C1=Cc1ccc(CCC(=O)*)n1[B-]2(F)F; X1 = CN(C)c1ccc(/N=N/c2ccc(C(=O)*)cc2)cc1; Ethylenediamine = C(CN[*:2])N[*:1]; Ile(3ξ) = CCC(C)[C@H](N)C(=O)O; AMC = Cc1cc(=O)oc2cc(N*)ccc12
# Columns and labels:
# [1] = system: co-cultures of E0771 cells and IL-2-activated CD8+ T cells; test: Drug screening, image-based phenotypic screen with H5; assay type: cell-based, mouse; settings: drug at working concentration plus IL-2 100 U mL^−1, 3 h
# Description: Drug screening. E0771 (750 cells/well) and freshly isolated murine CD8+ T cells (6,000 cells/well) were plated in 384-well plates as described above. […] H5 (20 μM) and Hoechst 33342 (1 μM) was added for 1 h at 37° C., washed with PBS and imaged under ImageXpress™ XLS (Molecular Devices) using KRB (10% FBS) buffer as media. Fluorescent images (4 sites/well) were acquired under a 40× objective using 405 nm (Hoechst) and 488 nm (H5) excitation wavelengths and data was analysed with MetaXpress software using the Custom Module Editor. Briefly, nuclei were used as seeds to create a pseudo-cell area and granzyme B positive puncta were detected using a top-hat filter (pixel size: 10, circle shape) followed by an average filter (3×3 pixel).
# [2] = target: T1, human recombinant granzyme B (Homo sapiens, UniProt P10144); test: HPLC/MS analysis of probe cleavage by granzyme B in urine; assay type: biochemical; settings: after 1 h with granzyme B present
# T1 sequence (P10144 21-247): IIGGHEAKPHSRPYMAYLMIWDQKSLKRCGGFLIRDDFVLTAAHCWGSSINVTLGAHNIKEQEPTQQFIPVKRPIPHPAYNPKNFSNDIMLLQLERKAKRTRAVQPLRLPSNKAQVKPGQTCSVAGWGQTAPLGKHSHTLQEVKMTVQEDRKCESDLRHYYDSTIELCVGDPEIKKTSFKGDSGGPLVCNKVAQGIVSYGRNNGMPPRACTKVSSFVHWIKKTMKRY
# Description: (§1) Following incubation, the samples were diluted with MeOH, centrifuged and the supernatant injected into the HPLC/MS. Samples were eluted with 0.1% HCOOH in H2O (A) and 0.1% HCOOH in MBCN (B), with a gradient of 0 to 100% B over 5 minutes and an additional isocratic period of 3 minutes with a flow rate of 1.5 mL min^−1. Reactions were monitored from 220-700 nm and percentage cleaved was determined by comparing peak area of the cleaved probe against the intact probe on MassLynx software.
# mKate-E0771 cancer cells = assay type: cell-based, mouse
# Description: FIG. 8. […] Cell viability was determined using a commercially available MTT kit (Invitrogen) with values normalized to untreated cells. Data presented as mean values±SEM (2 independent experiments with 3 replicates for each).
# [3] = assay type: in vitro ADME, human
# Description: as §1, with “Probe (H5 or R7) (25 μM) was incubated with human recombinant granzyme B (15 nM) in Granzyme B buffer for 1.5 h at 37° C. Following” for “Following”
# We first sought to address the stability of probe H5 and R7 and in urine from 3 healthy donors to ensure no cross-reactivity occurred with any other biomolecules that may be present in all urine samples. To do this we monitored the fluorescence response of probe H5 and R7 in urine with and without spiked granzyme B (15 nM) and also assessed stability via HPLC analysis. […] (FIG. 11). It should also be noted that HPLC-MS confirmed the cleavage of probe H5 and R7 after the aspartic acid residue (the natural granzyme B cleavage site).
# hGzmB [4] = target: T2, hGzmB (Homo sapiens, UniProt P10144); test: HPLC conversion/cleavage of probes by hGzmB; assay type: biochemical; settings: for cleavage at 100 nM for 24 h: 100 nM enzyme
# T2 sequence (P10144 21-247): as above
# Text: FIG. 5. HPLC traces of the probe H5 before and after reaction with hGzmB. HPLC chromatogram and mass spectrometry analysis of the probe H5 before and after reaction with increasing concentrations of hGzmB. Mcalc. (intact probe): 1246.6 [M+Na^+]; Mcalc. (cleaved probe): 747.2 [M+H^+].
# [5] = target: T1, human recombinant granzyme B; test: Reactivity of NIR probes with granzyme B; assay type: biochemical
# Description: With the probes in hand (Table 4) they were tested for their reactivity with human recombinant granzyme B to identify a lead candidate. Each probe was tested at a concentration of 25 μM against 20 nM granzyme B and fluorescence was recorded over 2 hours at 37° C. (λex: 620 nm, λem: 660 nm).
# [6] = system: E0771 cells alone or in co-culture with CD8+ T cells; test: AZD5363 follow-up: cell death and H5 staining by flow cytometry; assay type: cell-based, mouse
# Description: FIG. 10. […] Co-cultures were stained with probe H5 (5 μM) and AF647-Annexin V (10 nM). Excitation/emission wavelengths: 488 nm/525 nm (for probe H5), 633/670 nm (for AF647-Annexin V). c) Percentages of E0771 cells that were double-stained with probe H5 and AF647-Annexin V under the experimental conditions described in a). Data presented as mean values±SEM (n=3).
# hGzmB [7] = target: T2, hGzmB; test: Fluorescence assays with recombinant hGzmB; assay type: biochemical
# Description: Fluorescence assays with recombinant enzymes. Fluorescence-based assays with enzymes were performed in buffer-1 (50 mM Tris, 100 mM NaCl, pH 7.4) for GzmB, pro-GzmB, GzmA and HNE, or buffer-2 (25 mM HEPES, 0.1% CHAPS, 10 mM DTT, pH 7.5) for caspases and other enzymes. Probes (25 μM) were added to enzymes (20 nM or at the indicated concentrations) in 384-well plates and their fluorescence emission was recorded at 450 nm (for AMC) or 510 nm (for BODIPY) at 37° C. using a Synergy H1 Hybrid reader (BioTek). In experiments with Ac-IEPD-CHO (50 μM), the inhibitor was pre-incubated for 1 h with GzmB before addition of any probe.
# GzmB = settings: cited from earlier work
# [8] = system: recombinant hGzmB (20 nM); test: buffer-1 (50 mM Tris, 100 mM NaCl, pH 7.4); settings: human, 37° C., up to 2 h
# hGzmB (100 nM) = settings: human, up to 24 h
# [9] = urine from 3 healthy donors, without granzyme B; settings: human, 37° C., up to 3 hours
# [10] = system: human recombinant granzyme B (15 nM); test: urine from 3 healthy donors with spiked granzyme B (15 nM); settings: 37° C., up to 3 hours
molecule,measurement,setting,value
"CC(=O)O[C@@]12CO[C@@H]1C[C@H](O)[C@@]1(C)C(=O)[C@H](O)C3=C(C)[C@@H](OC(=O)[C@H](O)[C@@H](NC(=O)OC(C)(C)C)c4ccccc4)C[C@@](O)([C@@H](OC(=O)c4ccccc4)[C@H]21)C3(C)C [C11, Docetaxel]",H5 fluorescence signal compared to IL-2 only controls,[1],Increased fluorescence signals
"C#CC[C@H](c1nc2cc(Cl)ccc2c(=O)n1Nc1ccccc1)N(CCCN)C(=O)c1cccc(Cl)c1F [C12, ARQ621]",H5 fluorescence signal compared to IL-2 only controls,[1],Increased fluorescence signals
"C/C(=C\c1csc(C)n1)[C@@H]1C[C@@H]2O[C@]2(C)CCC[C@H](C)[C@H](O)[C@@H](C)C(=O)C(C)(C)[C@@H](O)CC(=O)O1 [C13, Epothilone B]",H5 fluorescence signal compared to IL-2 only controls,[1],Increased fluorescence signals
"CO[C@@]12[C@H](COC(N)=O)C3=C(C(=O)C(C)=C(N)C3=O)N1C[C@@H]1N[C@@H]12 [C18, Mitomycin C]",H5 fluorescence signal compared to IL-2 only controls,[1],Increased fluorescence signals
"CC(=O)N[C@@H](CSC(=O)[C@]1([C@@H](O)C(C)C)NC(=O)[C@H](C)[C@@H]1O)C(=O)O [C30, Lactacystin]",H5 fluorescence signal compared to IL-2 only controls,[1],Increased fluorescence signals
CCC(C)[C@H](NC(=O)CCC1=[N+]2C(=Cc3c(C)cc(C)n3[B-]2(F)F)C=C1)C(=O)N[C@@H](CCC(=O)O)C(=O)N1CCC[C@H]1C(=O)N[C@@H](CC(=O)O)C(=O)N[C@@H](C)C(=O)N[C@@H](CC(C)C)C(=O)NCCNC(=O)c1ccc(/N=N/c2ccc(N(C)C)cc2)cc1 (stereo partly drawn) [H5] ({BODIPY(FL)}-[Ile(3ξ)]EPDAL-{Ethylenediamine-X1}),conversion to the cleaved probe in urine,[2],up to 84%
same,cytotoxicity (cell viability),mKate-E0771 cancer cells,not cytotoxic
same,probe cleaved in the urine sample alone (HPLC),[3],less than 1%
same,"HPLC conversion (20 nM hGzmB, 2 h)",hGzmB [4],100%
CCC(C)[C@H](NC(=O)CCCCCN1/C(=C/C=C/C=C/C2=[N+](C)c3ccc(S(=O)(=O)[O-])cc3C2(C)C)C(C)(C)c2cc(S(=O)(=O)[O-])ccc21)C(=O)N[C@@H](CCC(=O)O)C(=O)N1CCC[C@H]1C(=O)N[C@@H](CC(=O)O)C(=O)N[C@@H](C)C(=O)N[C@@H](CC(C)C)C(=O)NCCOCCOCCOCCOCCNC(=O)C1CCN(S(=O)(=O)c2ccccc2-c2c3ccc(=[N+]4CCc5ccccc54)cc-3oc3cc(N4CCc5ccccc54)ccc23)CC1 (stereo partly drawn) [R7],conversion from intact to cleaved (HPLC-MS),[5]; within 2 hours,100%
same,conversion to the cleaved probe in urine,[2],≤ 99%
same,probe cleaved in the urine sample alone (HPLC),[3],less than 1%
CC[C@H](C)[C@H](NC(=O)CCC1=[N+]2C(=Cc3c(C)cc(C)n3[B-]2(F)F)C=C1)C(=O)N[C@@H](CCC(=O)O)C(=O)N1CCC[C@H]1C(=O)N[C@@H](CC(=O)O)C(=O)NCCNC(=O)c1ccc(/N=N/c2ccc(N(C)C)cc2)cc1 [T1] ({BODIPY(FL)}-IEPD-{Ethylenediamine-X1}),cleavage at 20 nM enzyme for 2 h,hGzmB [4],< 5%
same,cleavage at 100 nM for 24 h,hGzmB [4],15%
AZD5363 [C5],H5 fluorescence signal compared to IL-2 only controls,[1],Increased fluorescence signals
same,H5 fluorescence signal compared to IL-2 only controls,[1]; listed as AZD5363,brightest H5 fluorescence staining
same,cancer cell death and H5 staining,"[6]; AZD5363 on its own, E0771 cells",did not induce significant cancer cell death nor cause H5 staining
same,cancer cell death and H5 fluorescence emission,"[6]; combination with 100 U mL^−1 IL-2, CD8+ T cell-E0771 co-cultures",caused significant cancer cell death and H5 fluorescence emission
Ac-IEPD-aldehyde,effect of inhibitor pre-incubation on fold change of R7,[5]; granzyme B pre-incubated with inhibitor,fold change decreased
same,effect of inhibitor on fluorescence response of H5 to hGzmB,hGzmB [7]; Ac-IEPD-CHO 50 μM pre-incubated 1 h with GzmB,drastically reduced the fluorescence response of H5
Ac-IEPD-{AMC} [listing 1 of 2 here],LoD,hGzmB [7]; limit of detection of hGzmB,25 nM
same,Km,GzmB,160 µM
same,kcat,GzmB,0.5 s⁻¹
same,cleavage at 20 nM enzyme for 2 h,hGzmB [4],< 1%
same,cleavage at 100 nM for 24 h,hGzmB [4],10%
Ac-IEPD-{AMC} [listing 2 of 2 here],not cleaved,[8],<1% cleavage at 20 nM enzyme for 2 h
same,cleaved bond,hGzmB (100 nM),D-AMC
"H5m (IEFDAL; also: FRET labels, positions not given here)","HPLC conversion (20 nM hGzmB, 2 h)",hGzmB [4],70%
IEFDAL,cleaved bond,[8],Asp-Ala
IEPD-Dabcyl ({BODIPY(FL)}-IEPD-{Ethylenediamine-X1}; SMILES CC[C@H](C)[C@H](NC(=O)CCC1=[N+]2C(=Cc3c(C)cc(C)n3[B-]2(F)F)C=C1)C(=O)N[C@@H](CCC(=O)O)C(=O)N1CCC[C@H]1C(=O)N[C@@H](CC(=O)O)C(=O)NCCNC(=O)c1ccc(/N=N/c2ccc(N(C)C)cc2)cc1),not cleaved,[8],<5% cleavage at 20 nM enzyme for 2 h
IEPDAG,cleaved bond,[8],Asp-Ala
IEPDRL,cleaved bond,[8],Asp-Arg
IEPDSG,cleaved bond,[8],Asp-Ser
IEPDSL,cleaved bond,[8],Asp-Ser
IEPDWL,cleaved bond,[8],Asp-Trp
IEPDWR,cleaved bond,[8],Asp-Trp
Ile-Glu-Pro-Asp-Ala-Leu [R7],not cleaved,[9],less than 1% of both probes had been cleaved whilst in the urine sample alone
same,cleaved bond,[8],aspartic acid-Ala
same,cleaved bond,[10],aspartic acid-Ala
{BODIPY(FL)}-[Ile(3ξ)]EPDAL-{Ethylenediamine-X1} (SMILES CCC(C)[C@H](NC(=O)CCC1=[N+]2C(=Cc3c(C)cc(C)n3[B-]2(F)F)C=C1)C(=O)N[C@@H](CCC(=O)O)C(=O)N1CCC[C@H]1C(=O)N[C@@H](CC(=O)O)C(=O)N[C@@H](C)C(=O)N[C@@H](CC(C)C)C(=O)NCCNC(=O)c1ccc(/N=N/c2ccc(N(C)C)cc2)cc1) [H5],not cleaved,[9],less than 1% of both probes had been cleaved whilst in the urine sample alone
same,cleaved bond,[8],Asp-Ala
same,cleaved bond,[10],aspartic acid-Ala
